Results on 27 molecules are retold here after ChEMBL document CHEMBL1144371, “Design, synthesis, and biological evaluation of novel 4-hydroxypyrone derivatives as HIV-1 protease inhibitors” (Bioorg Med Chem Lett, 2005).

Molecules are shown by their SMILES.

The test system of assay [1] is CCRF-CEM. Nature of the assay: Effective concentration required to protect CEM cells from […] immunodeficiency virus (SIV) infection. In kind it is functional, cell-based.
For assay [2], the system named is CCRF-CEM. The assay can be described thus: Ratio of toxic concentration (TC50) to the effective concentration (EC50) (Therapeutic Index) in CEM cells. In kind it is functional, Homo sapiens.
Assay [3] has as its target T1, Human immunodeficiency virus type 1 protease (Human immunodeficiency virus 1, UniProt Q72874). The assay can be described thus: Effective concentration required to inhibit human immunodeficiency virus 1 protease in MT-4 cells. In kind it is cell-based, MT4.
Assay [4] addresses T1, Human immunodeficiency virus type 1 protease. Nature of the assay: Inhibitory concentration against human immunodeficiency virus 1 protease in MT-4 cells. The class given is cell-based, MT4.

For the molecule `CCCC1(Cc2cccc3ccccc23)CC(=O)C(Sc2ccccc2)=C(O)O1` (stereo not drawn), the response with CCRF-CEM [1] was half-maximal at 4.3 µM (EC50). In addition, the TI with CCRF-CEM [2] is listed as 13. The like results for `CCCC1(CCc2ccccc2)CC(=O)C(Sc2cc(C)ccc2C)=C(O)O1` (stereo not drawn) were, in that order, 4.3 µM and above 23. For the molecule `O=C1CC2(CCCCC2)OC(O)=C1Sc1ccccc1`, the EC50 in the assay with CCRF-CEM [1] worked out at 12.3 µM. Besides, the TI in the assay with CCRF-CEM [2] came out at 4.

For the molecule `CCCC1(Cc2cccc3ccccc23)CC(=O)C(Sc2ccccc2CC)=C(O)O1` (stereo not drawn), the EC50 (in assay [3]; in the assay on CCRF-CEM [1]) was 1.7 µM throughout. The TI in the assay on CCRF-CEM [2] is 46. The molecule `CCc1ccccc1SC1=C(O)OC(COc2ccccc2)(c2ccccc2)CC1=O` (stereo not drawn) registered an EC50 in the assay with CCRF-CEM [1] of 5.6 µM. Also, the TI in the assay on CCRF-CEM [2] was 8.

`CC(C)(C)C1CCC2(CC1)CC(=O)C(Sc1ccccc1)=C(O)O2` (stereo not drawn): in the assay on CCRF-CEM [1], the EC50 was above 5 µM. The TI with CCRF-CEM [2] turned out to be 1.

On to `Cc1ccc(C(C)(C)C)c(SC2=C(O)OC(CCc3ccccc3)(C(C)C)CC2=O)c1` (stereo not drawn), for which a half-maximal response in assay [3] (EC50) required 15 µM. In assay [4], this molecule came in with an IC50 of 0.0011 µM. In the assay with CCRF-CEM [1], `CCCC1(Cc2ccc3ccccc3c2)CC(=O)C(Sc2ccccc2C)=C(O)O1` (stereo not drawn) yielded an EC50 of 2 µM. Moreover, the TI with CCRF-CEM [2] was determined as 17.

On to `Cc1ccccc1SC1=C(O)OC2(CCC(C(C)(C)C)CC2)CC1=O` (stereo not drawn), for which the 50% effective concentration (EC50) in the assay on CCRF-CEM [1] came out at 6.7 µM. The TI in the assay on CCRF-CEM [2] was determined as 8. In the case of `CCCC1(Cc2ccc3ccccc3c2)CC(=O)C(Sc2ccccc2CC)=C(O)O1` (stereo not drawn), in the assay with CCRF-CEM [1], the EC50 came out at 1.8 µM. In the assay on CCRF-CEM [2], the TI came to 34. For the molecule `CCC(c1ccccc1)c1c(O)c2ccccc2oc1=O` (stereo not drawn) [PHENPROCOUMON], it took 1 µM to reach half-maximal inhibition in assay [4] (IC50). Turning to `CCCC1(Cc2cccc3ccccc23)CC(=O)C(Sc2ccccc2C)=C(O)O1` (stereo not drawn), the 50% effective concentration (EC50) in the assay on CCRF-CEM [1] was found to be 3.8 µM. Also, the TI with CCRF-CEM [2] is reported as above 26.

For `CCCC1(CCc2ccccc2)CC(=O)C(Sc2ccccc2C)=C(O)O1` (stereo not drawn), in the assay with CCRF-CEM [1], the midpoint of the response, the EC50, lay at 3.7 µM. For the same molecule, the TI with CCRF-CEM [2] is given as above 27. Molecule `CCCC1(CCc2ccccc2)CC(=O)C(C(CC)c2ccccc2)=C(O)O1` (stereo not drawn) showed an IC50 in assay [4] of 0.035 µM. The molecule `CCCC1(Cc2ccc3ccccc3c2)CC(=O)C(Sc2cc(C)ccc2C)=C(O)O1` (stereo not drawn) showed an EC50 in the assay with CCRF-CEM [1] of 4 µM. The TI in the assay with CCRF-CEM [2] turned out to be 10. The matching figures for `CCCC1(CCc2ccccc2)CC(=O)C(Sc2ccccc2CC)=C(O)O1` (stereo not drawn): 4.1 µM and above 24. The matching figures for `CCc1ccccc1SC1=C(O)OC2(CCC(C(C)(C)C)CC2)CC1=O` (stereo not drawn): 8.1 µM and 3. The matching figures for `Cc1ccc(C)c(SC2=C(O)OC(COc3ccccc3)(c3ccccc3)CC2=O)c1` (stereo not drawn): 9.2 µM and 5. In the assay on CCRF-CEM [1], `Cc1ccccc1SC1=C(O)OC(COc2ccccc2)(c2ccccc2)CC1=O` (stereo not drawn) showed a half-maximal effective concentration (EC50) of 8.2 µM. Besides, the TI with CCRF-CEM [2] is listed as above 12.

With `CCCC1(Cc2ccc3ccccc3c2)CC(=O)C(Sc2ccccc2)=C(O)O1` (stereo not drawn), in the assay on CCRF-CEM [1], the EC50 came out at 3.2 µM. In the assay on CCRF-CEM [2], the TI amounted to 10. In the assay on CCRF-CEM [1], `Cc1ccccc1SC1=C(O)OC2(CCCCC2)CC1=O` showed a 50% effective concentration (EC50) of 3.3 µM. Further, in the assay with CCRF-CEM [2], the TI is above 30. The matching figures for `Cc1ccc(C)c(SC2=C(O)OC3(CCCCC3)CC2=O)c1`: 3.6 µM and above 28. Regarding `CCCC1(Cc2cccc3ccccc23)CC(=O)C(Sc2cc(C)ccc2C)=C(O)O1` (stereo not drawn), a half-maximal effect with CCRF-CEM [1] (EC50) was put at 4.6 µM. Moreover, the TI in the assay on CCRF-CEM [2] was 11.

Turning to `CCCC1(CCc2ccccc2)CC(=O)C(Sc2ccccc2)=C(O)O1` (stereo not drawn), the EC50 in the assay with CCRF-CEM [1] stood at 4.6 µM. Moreover, the TI in the assay with CCRF-CEM [2] is recorded as above 22. The matching figures for `O=C1CC(COc2ccccc2)(c2ccccc2)OC(O)=C1Sc1ccccc1` (stereo not drawn): 13 µM and 2. The molecule `Cc1ccc(C)c(SC2=C(O)OC3(CCC(C(C)(C)C)CC3)CC2=O)c1` (stereo not drawn) had an EC50 with CCRF-CEM [1] of 8.3 µM. The TI in the assay with CCRF-CEM [2] is listed as above 12. The like results for `CCc1ccccc1SC1=C(O)OC2(CCCCC2)CC1=O` were, in that order, 3.9 µM and above 26.

What is called EC50 is the midpoint of the concentration-response curve. Higher therefore signals weaker potency. In general, IC50 refers to the point on the concentration scale where inhibition reaches its midpoint. A lower IC50 goes with greater potency.
